The values that follow come from PubChem BioAssay AID686931 (Broad Institute, 2013).

Assay [1] can be described thus: Confirmatory dose response, V. cholerae DH231 delta cqsS, luciferase light activation (AID 686931). As to conditions: V. cholerae DH231 (delta cqsS) luciferase light production.
The test system of assay [2] is V. cholerae DH231 (delta cqsS) luciferase light production. The assay is described as above.

Several values for one entry are separate records, joined by “and”; a condition that tells them apart may be missing. Equal entries are not always repeated. Activity calls are given as the source filed them. No rule for the calls is given here. Bounds are passed on as bounds.

Turning to `O=C(Nc1nnc(-c2ccc3c(c2)OCCO3)o1)C(F)(F)c1ccccc1`, the activation in assay [1] (at 100 µM (top of the series)) was -1.19% (inactive).
Turning to `O=C(Cc1ccc(-c2ccccc2)cc1)NC1CCC1`, in assay [1] (at 100 µM (top of the series)), the activation is -0.546% (inactive).
Take `Cn1nc(NC(=O)c2ccco2)c2ccccc21`: in assay [2], the AC40 is 78.1 µM.
With `CCn1nnnc1NCc1ccc(C(C)C)cc1`, the activation in assay [1] (at 100 µM (top of the series)) was -0.577% (inactive).
Still for that read-out and setting: with `Cc1ccc2cc3c(NC(=O)Cc4ccco4)nn(C)c3nc2c1` the figure was 13.6% (inactive).
As to `O=C(Nc1nnc(-c2ccc3c(c2)OCCO3)o1)C1CCCCCC1`, in assay [2], the AC40 is 10.5 µM.
For the compound `O=C(Nc1nnc(-c2ccc3c(c2)CCCC3)o1)C1CCC1`, in assay [1] (at 80 µM (top of the series)), the activation was -0.346% (inactive).
As for `COc1ccc(S(=O)(=O)Nc2nnc(-c3ccc4c(c3)OCCO4)o2)cc1`, the activation in assay [1] (at 100 µM (top of the series)) is -1.4% (inactive).
On the same count and under the same terms, as for `Cc1ccc2cc3c(NC(=O)c4ccc(C)o4)nn(C)c3nc2c1`, the figure is 0.174% (inactive).
The same measure, in the same setting: as for `COc1ccc(-c2nnc(NC(C)=O)o2)cc1`, the figure is 1.64% (inactive); as for `O=C(Nc1nnc(-c2ccc3c(c2)OCCO3)o1)C1CC1`, -0.326% (inactive).
Same read-out and setting: as for `O=C(Nc1nnc(-c2ccncc2)o1)C1CCC1`, the figure is 0.692% (inactive); as for `O=C(Nc1nnc(C2CCCC2)o1)C1CCCCC1`, -0.731% (inactive); as for `CN(C)/C=N/c1nnc(-c2ccc3c(c2)OCCO3)o1`, -0.521% (inactive).
As for `O=C(Nc1nnc(-c2ccccc2Cl)o1)C1CCCCC1`, in assay [1] (at 100 µM (top of the series)), the activation was 0.072% (inactive).
`CCc1ccc2cc3c(NC(=O)c4ccco4)nn(C)c3nc2c1`: the AC40 in assay [2] is 31 µM.
Take `Cc1ccc2cc3c(NC(=O)c4ccccn4)nn(C)c3nc2c1`: the activation in assay [1] (at 100 µM (top of the series)) is 1.04% (inactive).
As to `Cc1cc2cc3c(NC(=O)c4ccco4)nn(C)c3nc2cc1C`, in assay [2], the AC40 was 22.2 µM.
In the case of `Cc1ccc2cc3c(NC(=O)C4CCCC4)nn(C)c3nc2c1`, in assay [2], the AC40 was 37.9 µM.
On to `CC(C)c1ccc2cc3c(NC(=O)c4ccco4)nn(C)c3nc2c1`, for which the activation in assay [1] (at 100 µM (top of the series)) is 2.47% (inactive).
For the compound `COc1ccc2cc3c(NC(=O)c4ccco4)nn(C)c3nc2c1`, the AC40 in assay [2] is 1.83 µM.
Consider `CC(C)(C)OC(=O)N1CCC(C(=O)Nc2nnc(-c3ccc4c(c3)OCCO4)o2)CC1`, for which, in assay [1] (at 100 µM (top of the series)), the activation was 0.619% (inactive).
Same read-out and setting: as for `O=S(=O)(Nc1nnc(-c2ccc3c(c2)OCCO3)o1)c1ccc(Cl)cc1`, the figure is -1.11% (inactive).
For the compound `O=C(Nc1nnc(-c2ccc(Cl)cc2)o1)C1CCCCC1`, the activation in assay [1] (at 80 µM (top of the series)) is -1.2% (inactive).
With `Cn1nc(NC(=O)c2ccco2)c2cc3ccccc3nc21`, the AC40 in assay [2] is 4.18 µM.
Turning to `Cc1ccc2cc3c(NC(=O)c4cccs4)nn(C)c3nc2c1`, in assay [2], the AC40 was 75.3 µM.
On to `CCC(C)(C)C(=O)Nc1nnc(-c2ccc3c(c2)OCCO3)o1`, for which the activation in assay [1] (at 80 µM (top of the series)) is 0.359% (inactive).
Consider `O=C(Nc1nnc(-c2ccc3c(c2)OCCO3)o1)C1CCC1`, for which the activation in assay [1] (at 100 µM (top of the series)) was 0.218% (inactive).
On to `Cc1cc(F)c2cc3c(NC(=O)c4ccco4)nn(C)c3nc2c1`, for which, in assay [2], the AC40 is 76.2 µM.
For `COc1cccc(-c2nnc(NC(=O)C3CCCCC3)o2)c1`, in assay [1] (at 100 µM (top of the series)), the activation is 3.05% (inactive).
For the compound `O=C(Nc1nnc(-c2ccc3c(c2)OCCO3)o1)C1CCCCC1`, in assay [2], the AC40 was 4.54 µM and 1.67 µM.
Regarding `Cn1ccc(NC(=O)c2ccco2)n1`, in assay [1] (at 100 µM (top of the series)), the activation was 0.502% (inactive).
As for `Cc1ccc2cc3c(NC(=O)c4ccoc4)nn(C)c3nc2c1`, the activation in assay [1] (at 80 µM (top of the series)) was 10.6% (inactive).
For `Cc1cc2nc3c(cc2cc1F)c(NC(=O)c1ccco1)nn3C`, the AC40 in assay [2] was 21.7 µM.
For `O=C(Nc1nnc(-c2cccc(Cl)c2)o1)C1CCCCC1`, in assay [1] (at 80 µM (top of the series)), the activation is 1.82% (inactive).
For `CCCCCCCCCC(=O)[C@H](O)CC` (racemic), in assay [1] (at 100 µM (top of the series)), the activation is -0.642% (inactive).
Turning to `O=C(CC1CCCCC1)Nc1nnc(-c2cccnc2)o1`, in assay [1] (at 80 µM (top of the series)), the activation was -0.959% (inactive).
The same measure, in the same setting: as for `O=C(Nc1nnc(-c2ccc3c(c2)OCCO3)o1)C1CCCC1`, the figure is 8.16% (inactive).
With `Cn1nc(NC(=O)c2ccco2)c2cccnc21`, in assay [2], the AC40 was 20.4 µM.
The same measure, in the same setting: as for `COc1ccccc1-c1nnc(NC(=O)C2CCCCC2)o1`, the figure is > 100 µM (inactive).
In the case of `O=C(Nc1nnc(-c2cccnc2)o1)C1CCC1`, the activation in assay [1] (at 100 µM (top of the series)) was 0.588% (inactive).
In the case of `COc1ccc(-c2nnc(NC(=O)C3CCCCC3)o2)cc1`, the AC40 in assay [2] was > 100 µM (inactive).
As to `O=C(CC1CCCCC1)Nc1nnc(-c2ccc3c(c2)CCCC3)o1`, in assay [1] (at 35 µM (top of the series)), the activation is 0.843% (inactive).
For the compound `Cc1ccc2cc3c(NC(=O)c4ccco4)nn(C)c3nc2c1`, in assay [2], the AC40 was 6.52 µM and 15.8 µM.
As for `Cc1ccc2cc3c(NC(=O)c4cc5ccccc5o4)nn(C)c3nc2c1`, the activation in assay [1] (at 100 µM (top of the series)) is 0.496% (inactive).
On the same count and under the same terms, with `C(=N\c1nnc(-c2ccc3c(c2)OCCO3)o1)/c1ccccc1` the figure was 0.573% (inactive).
On the same count and under the same terms, as for `CN1CCC(C(=O)Nc2nnc(-c3ccc4c(c3)OCCO4)o2)CC1`, the figure is 0.079% (inactive).
`CCCCCCCCCC(=O)C(O)CC` (configuration not stated): in assay [1] (at 50 µM (top of the series)), the activation was -0.408% (inactive).
Take `Cn1nc(NC(=O)c2ccco2)c2cc3ccc(C(C)(C)C)cc3nc21`: in assay [1] (at 100 µM (top of the series)), the activation is -1.04% (inactive).
In the case of `c1ccc(CNc2nnc(-c3ccc4c(c3)OCCO4)o2)cc1`, the activation in assay [1] (at 100 µM (top of the series)) was -0.54% (inactive).
`O=C(Nc1nnc(-c2cccnc2)o1)C1CCCCC1`: the AC40 in assay [2] was 88.1 µM.
The same measure, in the same setting: as for `Cc1cc(F)cc2nc3c(cc12)c(NC(=O)c1ccco1)nn3C`, the figure is 70.7 µM.
